Measurements: patent US20230322846A9, “NEUROACTIVE STEROIDS AND THEIR METHODS OF USE” (SAGE THERAPEUTICS, INC., priority 2018, published 2023)

biological target: [35S]-TBPS binding, rat brain cortical membranes; assay: Steroid inhibition of [35S]-TBPS binding; conditions: 3 nM [35S]-TBPS, in the presence of 5 mM GABA
Outline: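 Rat cortical P2 membranes incubated 90 min at room temperature with 3 nM [35S]-TBPS, […] and test compound (0.5% DMSO final) in NaCl/Na–K phosphate pH 7.4; nonspecific binding with […]. Filter-bound radioactivity counted; IC50 and Imax from nonlinear fits, mean ± SEM.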

SMILES | IC50 [nM]
COc1cncc(C[C@@H](C)[C@H]2CC[C@H]3[C@@H]4CC[C@@H]5C[C@](C)(O)CC[C@@H]5[C@H]4CC[C@]23C)c1 [Example 433] | < 100
Cc1cncc(C[C@@H](C)[C@H]2CC[C@H]3[C@@H]4CC[C@@H]5C[C@](C)(O)CC[C@@H]5[C@H]4CC[C@]23C)c1 [Example 434] | 100 to 1000
C[C@@H](Cc1nccc(C#N)n1)[C@H]1CC[C@H]2[C@@H]3CC[C@@H]4C[C@](C)(O)CC[C@@H]4[C@H]3CC[C@]12C [Example 435] | < 100
Cc1cnc(C[C@H](C)[C@H]2CC[C@H]3[C@@H]4CC[C@@H]5C[C@](C)(O)CC[C@@H]5[C@H]4CC[C@]23C)nc1 [Example 437] | < 100
Cc1cnc(C[C@@H](C)[C@H]2CC[C@H]3[C@@H]4CC[C@@H]5C[C@](C)(O)CC[C@@H]5[C@H]4CC[C@]23C)cn1 [Example 440] | < 100
Cc1cncc(C[C@H](C)[C@H]2CC[C@H]3[C@@H]4CC[C@@H]5C[C@](C)(O)CC[C@@H]5[C@H]4CC[C@]23C)n1 [Example 441] | < 100
Cc1cncc(C[C@@H](C)[C@H]2CC[C@H]3[C@@H]4CC[C@@H]5C[C@](C)(O)CC[C@@H]5[C@H]4CC[C@]23C)n1 [Example 442] | 100 to 1000
C[C@H](Cc1ccc(C(F)(F)F)nc1)[C@H]1CC[C@H]2[C@@H]3CC[C@@H]4C[C@](C)(O)CC[C@@H]4[C@H]3CC[C@]12C [Example 444] | 100 to 1000
C[C@@H](Cc1nc(C(F)(F)F)cs1)[C@H]1CC[C@H]2[C@@H]3CC[C@@H]4C[C@](C)(O)CC[C@@H]4[C@H]3CC[C@]12C [Example 449] | < 100
C[C@H](Cc1nc(C(F)(F)F)cs1)[C@H]1CC[C@H]2[C@@H]3CC[C@@H]4C[C@](C)(O)CC[C@@H]4[C@H]3CC[C@]12C [Example 450] | 100 to 1000
Cc1cc(C[C@@H](C)[C@H]2CC[C@H]3[C@@H]4CC[C@@H]5C[C@](C)(O)CC[C@@H]5[C@H]4CC[C@]23C)sn1 [Example 451] | 100 to 1000
CCOC[C@@]1(O)CC[C@H]2[C@H](CC[C@@H]3[C@@H]2CC[C@]2(C)[C@@H]([C@H](Nc4ccc(C#N)cc4C)C(F)(F)F)CC[C@@H]32)C1 [Example 487, 4-(((S)-1-((3R,5R,8R,9R,10S,13S,14S,17S)-3-(ethoxymethyl)-3-hydroxy-13-methylhexadecahydro-1H-cyclopenta[a]phenanthren-17-yl)-2,2,2-trifluoroethyl)amino)-3-methylbenzonitrile] | 100 to 1000
CCOC[C@@]1(O)CC[C@H]2[C@H](CC[C@@H]3[C@@H]2CC[C@]2(C)[C@@H]([C@@H](Nc4ccc(C#N)cc4C)C(F)(F)F)CC[C@@H]32)C1 [Example 488, 4-(((R)-1-((3R,5R,8R,9R,10S,13S,14S,17S)-3-(ethoxymethyl)-3-hydroxy-13-methylhexadecahydro-1H-cyclopenta[a]phenanthren-17-yl)-2,2,2-trifluoroethyl)amino)-3-methylbenzonitrile] | 1000 to 10000
Cc1cc(C#N)ccc1N[C@@H]([C@H]1CC[C@H]2[C@@H]3CC[C@@H]4C[C@](C)(O)CC[C@@H]4[C@H]3CC[C@]12C)C(F)(F)F [Example 489, 3-methyl-4-(((S)-2,2,2-trifluoro-1-((3R,5R,8R,9R,10S,13S,14S,17S)-3-hydroxy-3,13-dimethylhexadecahydro-1H-cyclopenta[a]phenanthren-17-yl)ethyl)amino)benzonitrile] | 1000 to 10000
Cc1cc(C#N)ccc1N[C@H]([C@H]1CC[C@H]2[C@@H]3CC[C@@H]4C[C@](C)(O)CC[C@@H]4[C@H]3CC[C@]12C)C(F)(F)F [Example 490, 3-methyl-4-(((R)-2,2,2-trifluoro-1-((3R,5R,8R,9R,10S,13S,14S,17S)-3-hydroxy-3,13-dimethylhexadecahydro-1H-cyclopenta[a]phenanthren-17-yl)ethyl)amino)benzonitrile] | 100 to 1000
CC[C@@]1(O)CC[C@H]2[C@H](CC[C@@H]3[C@@H]2CC[C@]2(C)[C@@H]([C@@H](C)Nc4ccc(C#N)nc4)CC[C@@H]32)C1 [Example 491, 5-(((R)-1-((3R,5R,8R,9R,10S,13S,14S,17S)-3-ethyl-3-hydroxy-13-methylhexadecahydro-1H-cyclopenta[a]phenanthren-17-yl)ethyl)amino)picolinonitrile] | 100 to 1000
CCOC[C@@]1(O)CC[C@H]2[C@H](CC[C@@H]3[C@@H]2CC[C@]2(C)[C@@H]([C@@H](CC)Nc4cccc(C#N)c4)CC[C@@H]32)C1 [Example 492, 3-(((R)-1-((3R,5R,8R,9R,10S,13S,14S,17S)-3-(ethoxymethyl)-3-hydroxy-13-methylhexadecahydro-1H-cyclopenta[a]phenanthren-17-yl)propyl)amino)benzonitrile] | 1000 to 10000
CCOC[C@@]1(O)CC[C@H]2[C@H](CC[C@@H]3[C@@H]2CC[C@]2(C)[C@@H]([C@H](CC)Nc4ccc(C#N)nc4)CC[C@@H]32)C1 [Example 493, 5-(((S)-1-((3R,5R,8R,9R,10S,13S,14S,17S)-3-(ethoxymethyl)-3-hydroxy-13-methylhexadecahydro-1H-cyclopenta[a]phenanthren-17-yl)propyl)amino)picolinonitrile] | 1000 to 10000
CCOC[C@@]1(O)CC[C@@]2(C)[C@H](CC[C@@H]3[C@@H]2CC[C@]2(C)[C@@H]([C@H](CC)Nc4ccc(C#N)nc4)CC[C@@H]32)C1 [Example 494, 5-(((S)-1-((3R,5R,8R,9S,10S,13S,14S,17S)-3-(ethoxymethyl)-3-hydroxy-10,13-dimethylhexadecahydro-1H-cyclopenta[a]phenanthren-17-yl)propyl)amino)picolinonitrile] | 100 to 1000
CCOC[C@@]1(O)CC[C@@]2(C)[C@H](CC[C@@H]3[C@@H]2CC[C@]2(C)[C@@H]([C@@H](CC)Nc4ccc(C#N)nc4)CC[C@@H]32)C1 [Example 495, 5-(((R)-1-((3R,5R,8R,9S,10S,13S,14S,17S)-3-(ethoxymethyl)-3-hydroxy-10,13-dimethylhexadecahydro-1H-cyclopenta[a]phenanthren-17-yl)propyl)amino)picolinonitrile] | 100 to 1000
CC[C@H](Nc1cccc(C#N)c1)[C@H]1CC[C@H]2[C@@H]3CC[C@@H]4C[C@@](O)(COC)CC[C@@H]4[C@H]3CC[C@]12C [Example 496, 3-(((S)-1-((3R,5R,8R,9R,10S,13S,14S,17S)-3-hydroxy-3-(methoxymethyl)-13-methylhexadecahydro-1H-cyclopenta[a]phenanthren-17-yl)propyl)amino)benzonitrile] | 100 to 1000
CC[C@@H](Nc1cccc(C#N)c1)[C@H]1CC[C@H]2[C@@H]3CC[C@@H]4C[C@@](O)(COC)CC[C@@H]4[C@H]3CC[C@]12C [Example 497, 3-(((R)-1-((3R,5R,8R,9R,10S,13S,14S,17S)-3-hydroxy-3-(methoxymethyl)-13-methylhexadecahydro-1H-cyclopenta[a]phenanthren-17-yl)propyl)amino)benzonitrile] | 100 to 1000
